Values belong to the compound of their own block, whether it stands above or below them. Calls of active or inactive are those of the source.
Tests used:
[1] = target: T1, Small ubiquitin-related modifier 1 (Homo sapiens, UniProt P63165); experiment: inhibitors of SUMO1 peptide binding, dose response, biochemical, fluorescence polarization, uHTS hits (AID 624382); format: functional; conditions: read-out: IC50_Mean
[2] = target: T1, Small ubiquitin-related modifier 1; experiment: inhibitors of SUMO1 partner interactions, dose response, biochemical, FRET (AID 624383); format: functional; conditions: read-out: IC50_Mean
[3] = target: Tyrosyl-DNA phosphodiesterase 2 (Homo sapiens, UniProt O95551); experiment: human TDP2 enzyme inhibitors, dose response, biochemical, epi absorbance, IC50 (AID 743297)
Beta-galactosidase = Beta-galactosidase (Escherichia coli, UniProt Q8VNN2); experiment: Dose response counterscreen for EBI2 assay utilizing the enzyme, b-galactosidase.; format: functional
[4] = target: 1-phosphatidylinositol 4,5-bisphosphate phosphodiesterase gamma-1 (Homo sapiens, UniProt P19174); experiment: Counterscreen for inhibitors of phospholipase C isozymes (PLC-B3): Fluorescence-based biochemical high throughput dose response assay to identify inhibitors of phospholipase C isozymes (PLC-gamma1).
[5] = target: 1-phosphatidylinositol 4,5-bisphosphate phosphodiesterase beta-3 (Homo sapiens, UniProt Q01970); experiment: Fluorescence-based biochemical high throughput dose response assay to identify inhibitors of phospholipase C isozymes (PLC-B3).
[6] = target: T2, Rac GTPase-activating protein 1 (Homo sapiens, UniProt Q9H0H5); experiment: MgcRacGAP GTPase-activating activity inhibitors, confirmation, biochemical, ADP Hunter fluorescence, primary and confirmatory (AID 624330); format: functional
T2 sequence (Q9H0H5 whole entry): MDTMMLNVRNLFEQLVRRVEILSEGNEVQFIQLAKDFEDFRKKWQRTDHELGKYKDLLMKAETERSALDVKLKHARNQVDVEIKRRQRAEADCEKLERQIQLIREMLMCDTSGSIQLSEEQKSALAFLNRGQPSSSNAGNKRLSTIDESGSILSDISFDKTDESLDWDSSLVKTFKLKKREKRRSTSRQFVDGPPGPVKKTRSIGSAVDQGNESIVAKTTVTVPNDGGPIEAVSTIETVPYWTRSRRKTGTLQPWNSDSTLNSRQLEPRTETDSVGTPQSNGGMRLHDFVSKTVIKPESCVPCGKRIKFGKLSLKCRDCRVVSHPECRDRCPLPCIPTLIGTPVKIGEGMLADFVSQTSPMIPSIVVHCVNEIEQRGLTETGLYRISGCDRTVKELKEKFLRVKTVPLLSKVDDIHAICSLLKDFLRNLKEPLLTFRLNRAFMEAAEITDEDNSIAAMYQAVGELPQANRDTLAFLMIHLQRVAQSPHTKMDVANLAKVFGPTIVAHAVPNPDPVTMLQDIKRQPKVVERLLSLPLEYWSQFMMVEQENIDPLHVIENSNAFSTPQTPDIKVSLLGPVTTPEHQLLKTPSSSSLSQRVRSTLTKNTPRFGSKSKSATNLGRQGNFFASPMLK

cells [7] = format: functional, cell-based
cells [8] = format: functional, cell-based; remark: listed apart in the source
[9] = miR-122 activators in hepatoma reporter cells, dose response, cell-based, Huh7 psiCHECK-miR122, Renilla luciferase, cherry-picked (AID 651956); format: functional;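 note: huh7 hepatoma cells stably carrying a psiCHECK-2 miR-122 sensor plasmid; renilla luciferase signal reporting endogenous miR-122 activity after 48 h compound exposure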
[10] = HEK293T cytotoxicity, dose response, cytotoxicity control for miR-122 modulator project, cell-based, inhibitor set, cherry-pick, set 2 (AID 720697); format: functional
cells [11] = format: functional, cell-based; remark: listed apart in the source
[12] = target: T3, Nuclear receptor subfamily 0 group B member 1 (Homo sapiens, UniProt P51843); format: functional, cell-based;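 note: HEK293T cells transfected with SF-1 and DAX-1 plus StAR promoter luciferase reporter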
T3 sequence (P51843 whole entry): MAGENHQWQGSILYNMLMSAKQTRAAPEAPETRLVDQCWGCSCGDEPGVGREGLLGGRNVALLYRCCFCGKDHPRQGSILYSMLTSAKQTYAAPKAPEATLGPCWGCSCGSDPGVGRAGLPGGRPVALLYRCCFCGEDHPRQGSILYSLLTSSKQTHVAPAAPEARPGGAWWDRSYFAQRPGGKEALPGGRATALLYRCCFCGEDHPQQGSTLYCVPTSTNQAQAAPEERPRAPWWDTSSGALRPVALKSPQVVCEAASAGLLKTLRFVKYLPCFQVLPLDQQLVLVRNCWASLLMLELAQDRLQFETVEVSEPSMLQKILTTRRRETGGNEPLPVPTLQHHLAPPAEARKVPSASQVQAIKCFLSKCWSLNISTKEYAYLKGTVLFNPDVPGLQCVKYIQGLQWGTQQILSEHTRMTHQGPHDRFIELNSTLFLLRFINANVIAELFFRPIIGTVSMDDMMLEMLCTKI

Large T antigen = Large T antigen (Simian virus 40, UniProt P03070); format: functional, Betapolyomavirus macacae;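 note: Confirmatory-stage PubChem screen for compounds that inhibit SV40 T antigen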
[13] = target: T4, Mannose-6-phosphate isomerase (Homo sapiens, UniProt P34949); experiment: human PMI inhibitors, high substrate, primary screen, biochemical, fluorescence intensity, high mannose 6-phosphate (AID 1220)
T4 sequence (P34949 whole entry): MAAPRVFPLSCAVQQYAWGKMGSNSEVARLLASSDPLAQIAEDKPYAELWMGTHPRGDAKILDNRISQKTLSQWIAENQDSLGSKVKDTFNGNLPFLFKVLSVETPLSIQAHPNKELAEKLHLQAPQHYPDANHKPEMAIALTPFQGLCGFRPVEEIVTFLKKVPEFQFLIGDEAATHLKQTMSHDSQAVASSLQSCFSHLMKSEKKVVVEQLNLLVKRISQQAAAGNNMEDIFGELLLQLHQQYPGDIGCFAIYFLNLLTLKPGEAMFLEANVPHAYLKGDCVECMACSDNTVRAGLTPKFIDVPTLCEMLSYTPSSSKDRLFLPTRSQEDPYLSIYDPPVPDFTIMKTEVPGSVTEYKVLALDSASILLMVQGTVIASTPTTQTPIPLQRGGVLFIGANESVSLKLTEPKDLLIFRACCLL

[14] = HeLa cell cytotoxicity, dose response, cytotoxicity control for MgcRacGAP inhibitor project (AID 624300); format: functional
[15] = target: T5, Histone-lysine N-methyltransferase NSD2 (Homo sapiens, UniProt O96028); format: biochemical
T5 sequence (O96028 whole entry): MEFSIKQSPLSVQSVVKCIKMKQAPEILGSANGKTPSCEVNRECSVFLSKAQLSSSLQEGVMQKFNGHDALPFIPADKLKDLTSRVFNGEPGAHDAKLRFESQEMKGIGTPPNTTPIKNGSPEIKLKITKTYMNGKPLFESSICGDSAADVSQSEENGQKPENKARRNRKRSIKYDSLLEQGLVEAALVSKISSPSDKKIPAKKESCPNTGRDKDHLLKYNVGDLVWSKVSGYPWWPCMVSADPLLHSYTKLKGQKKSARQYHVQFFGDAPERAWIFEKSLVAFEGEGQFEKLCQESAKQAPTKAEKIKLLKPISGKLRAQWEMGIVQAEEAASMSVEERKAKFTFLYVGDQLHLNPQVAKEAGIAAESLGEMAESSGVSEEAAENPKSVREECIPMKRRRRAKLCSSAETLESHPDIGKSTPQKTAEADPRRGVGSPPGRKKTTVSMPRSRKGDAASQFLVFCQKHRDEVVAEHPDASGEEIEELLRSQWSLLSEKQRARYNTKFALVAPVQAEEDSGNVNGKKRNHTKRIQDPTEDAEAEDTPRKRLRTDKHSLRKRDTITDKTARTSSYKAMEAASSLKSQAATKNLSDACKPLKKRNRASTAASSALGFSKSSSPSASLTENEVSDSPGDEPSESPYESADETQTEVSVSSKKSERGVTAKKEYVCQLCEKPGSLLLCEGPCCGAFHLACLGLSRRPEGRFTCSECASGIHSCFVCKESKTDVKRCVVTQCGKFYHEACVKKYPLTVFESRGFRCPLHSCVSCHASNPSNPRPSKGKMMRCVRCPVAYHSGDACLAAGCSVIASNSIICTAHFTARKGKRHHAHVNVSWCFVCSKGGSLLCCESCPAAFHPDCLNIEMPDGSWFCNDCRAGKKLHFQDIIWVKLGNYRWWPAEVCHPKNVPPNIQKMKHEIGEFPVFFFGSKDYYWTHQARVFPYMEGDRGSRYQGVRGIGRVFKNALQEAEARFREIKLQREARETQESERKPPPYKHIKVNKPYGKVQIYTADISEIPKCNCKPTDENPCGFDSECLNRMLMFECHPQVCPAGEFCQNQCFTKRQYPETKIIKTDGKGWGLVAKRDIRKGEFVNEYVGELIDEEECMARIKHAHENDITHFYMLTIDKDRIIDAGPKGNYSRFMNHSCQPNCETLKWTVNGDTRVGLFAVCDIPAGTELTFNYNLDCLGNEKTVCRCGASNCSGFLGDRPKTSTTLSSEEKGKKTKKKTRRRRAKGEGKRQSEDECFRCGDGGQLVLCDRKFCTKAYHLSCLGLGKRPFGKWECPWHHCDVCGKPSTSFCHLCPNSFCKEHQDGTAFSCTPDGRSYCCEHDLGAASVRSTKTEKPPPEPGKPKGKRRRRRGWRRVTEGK
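Throughout, for EC50: agonist potency from rise in intracellular calcium fluorescence.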

1-phosphatidylinositol 4,5-bisphosphate phosphodiesterase beta-3, sequence (Q01970 whole entry): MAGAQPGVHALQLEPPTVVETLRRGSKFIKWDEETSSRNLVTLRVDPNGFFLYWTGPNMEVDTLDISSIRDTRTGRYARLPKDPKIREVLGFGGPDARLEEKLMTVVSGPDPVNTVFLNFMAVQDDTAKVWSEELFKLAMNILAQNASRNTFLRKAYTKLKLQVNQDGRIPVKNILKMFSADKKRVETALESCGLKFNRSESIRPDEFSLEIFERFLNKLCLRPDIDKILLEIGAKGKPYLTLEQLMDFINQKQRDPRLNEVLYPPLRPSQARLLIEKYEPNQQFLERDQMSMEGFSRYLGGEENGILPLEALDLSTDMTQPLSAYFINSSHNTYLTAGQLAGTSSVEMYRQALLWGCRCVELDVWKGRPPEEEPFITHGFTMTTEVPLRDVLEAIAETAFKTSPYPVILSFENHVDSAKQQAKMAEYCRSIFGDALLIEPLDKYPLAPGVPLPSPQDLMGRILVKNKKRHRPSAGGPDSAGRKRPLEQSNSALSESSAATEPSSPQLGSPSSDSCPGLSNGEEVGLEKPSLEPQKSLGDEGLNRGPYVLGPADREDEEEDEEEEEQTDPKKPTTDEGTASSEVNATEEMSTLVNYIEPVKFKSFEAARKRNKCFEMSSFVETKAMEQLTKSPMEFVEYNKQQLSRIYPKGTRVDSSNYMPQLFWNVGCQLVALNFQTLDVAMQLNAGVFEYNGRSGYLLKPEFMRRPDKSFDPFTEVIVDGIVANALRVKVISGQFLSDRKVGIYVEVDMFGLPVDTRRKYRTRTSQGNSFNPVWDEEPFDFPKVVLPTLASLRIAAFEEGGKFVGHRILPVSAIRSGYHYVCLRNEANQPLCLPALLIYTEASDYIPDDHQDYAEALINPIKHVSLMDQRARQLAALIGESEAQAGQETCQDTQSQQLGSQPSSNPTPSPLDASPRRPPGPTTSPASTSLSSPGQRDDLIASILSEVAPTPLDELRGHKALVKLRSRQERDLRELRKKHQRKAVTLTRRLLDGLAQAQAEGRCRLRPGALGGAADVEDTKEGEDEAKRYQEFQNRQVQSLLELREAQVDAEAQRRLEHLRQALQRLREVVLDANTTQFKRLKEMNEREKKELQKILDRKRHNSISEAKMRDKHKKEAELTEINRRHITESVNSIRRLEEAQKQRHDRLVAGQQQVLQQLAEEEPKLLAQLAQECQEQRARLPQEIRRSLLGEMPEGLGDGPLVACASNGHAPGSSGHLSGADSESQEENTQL
1-phosphatidylinositol 4,5-bisphosphate phosphodiesterase gamma-1, sequence (P19174 whole entry): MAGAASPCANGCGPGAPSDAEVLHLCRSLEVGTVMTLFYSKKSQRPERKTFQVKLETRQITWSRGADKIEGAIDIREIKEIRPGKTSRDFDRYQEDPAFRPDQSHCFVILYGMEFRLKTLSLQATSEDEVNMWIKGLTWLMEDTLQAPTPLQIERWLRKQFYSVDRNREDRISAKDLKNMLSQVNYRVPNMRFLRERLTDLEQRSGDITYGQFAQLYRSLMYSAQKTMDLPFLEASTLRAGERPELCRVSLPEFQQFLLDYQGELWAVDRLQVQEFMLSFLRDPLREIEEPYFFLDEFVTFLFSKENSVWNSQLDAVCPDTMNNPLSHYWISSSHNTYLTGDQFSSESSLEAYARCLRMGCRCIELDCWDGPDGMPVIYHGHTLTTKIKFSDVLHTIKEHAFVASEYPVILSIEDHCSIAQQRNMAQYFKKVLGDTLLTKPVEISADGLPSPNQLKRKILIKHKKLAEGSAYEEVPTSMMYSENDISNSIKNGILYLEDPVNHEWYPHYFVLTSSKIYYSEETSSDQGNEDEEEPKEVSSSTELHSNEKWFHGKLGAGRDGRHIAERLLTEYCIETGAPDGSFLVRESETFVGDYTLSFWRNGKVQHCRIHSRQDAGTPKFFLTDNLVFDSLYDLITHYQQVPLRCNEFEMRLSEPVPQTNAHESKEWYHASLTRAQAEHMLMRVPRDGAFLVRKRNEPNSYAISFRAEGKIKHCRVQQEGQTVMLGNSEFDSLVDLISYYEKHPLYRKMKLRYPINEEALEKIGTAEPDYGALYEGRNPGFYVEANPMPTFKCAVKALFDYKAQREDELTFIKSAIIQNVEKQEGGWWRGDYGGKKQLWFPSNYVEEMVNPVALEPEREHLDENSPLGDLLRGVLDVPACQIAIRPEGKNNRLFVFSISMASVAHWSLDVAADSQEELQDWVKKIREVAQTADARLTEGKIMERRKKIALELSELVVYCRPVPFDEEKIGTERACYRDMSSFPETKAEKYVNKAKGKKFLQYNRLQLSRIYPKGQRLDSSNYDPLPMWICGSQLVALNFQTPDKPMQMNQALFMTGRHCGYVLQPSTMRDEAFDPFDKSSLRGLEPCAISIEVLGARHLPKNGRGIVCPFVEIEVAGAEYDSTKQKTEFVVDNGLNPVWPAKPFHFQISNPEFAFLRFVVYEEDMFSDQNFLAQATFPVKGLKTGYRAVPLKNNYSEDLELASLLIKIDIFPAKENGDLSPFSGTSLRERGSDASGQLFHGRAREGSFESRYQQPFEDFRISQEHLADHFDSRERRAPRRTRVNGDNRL
T1 sequence (P63165 whole entry): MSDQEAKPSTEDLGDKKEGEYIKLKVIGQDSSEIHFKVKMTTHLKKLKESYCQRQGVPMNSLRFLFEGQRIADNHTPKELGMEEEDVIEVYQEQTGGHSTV
Beta-galactosidase, sequence (Q8VNN2 whole entry): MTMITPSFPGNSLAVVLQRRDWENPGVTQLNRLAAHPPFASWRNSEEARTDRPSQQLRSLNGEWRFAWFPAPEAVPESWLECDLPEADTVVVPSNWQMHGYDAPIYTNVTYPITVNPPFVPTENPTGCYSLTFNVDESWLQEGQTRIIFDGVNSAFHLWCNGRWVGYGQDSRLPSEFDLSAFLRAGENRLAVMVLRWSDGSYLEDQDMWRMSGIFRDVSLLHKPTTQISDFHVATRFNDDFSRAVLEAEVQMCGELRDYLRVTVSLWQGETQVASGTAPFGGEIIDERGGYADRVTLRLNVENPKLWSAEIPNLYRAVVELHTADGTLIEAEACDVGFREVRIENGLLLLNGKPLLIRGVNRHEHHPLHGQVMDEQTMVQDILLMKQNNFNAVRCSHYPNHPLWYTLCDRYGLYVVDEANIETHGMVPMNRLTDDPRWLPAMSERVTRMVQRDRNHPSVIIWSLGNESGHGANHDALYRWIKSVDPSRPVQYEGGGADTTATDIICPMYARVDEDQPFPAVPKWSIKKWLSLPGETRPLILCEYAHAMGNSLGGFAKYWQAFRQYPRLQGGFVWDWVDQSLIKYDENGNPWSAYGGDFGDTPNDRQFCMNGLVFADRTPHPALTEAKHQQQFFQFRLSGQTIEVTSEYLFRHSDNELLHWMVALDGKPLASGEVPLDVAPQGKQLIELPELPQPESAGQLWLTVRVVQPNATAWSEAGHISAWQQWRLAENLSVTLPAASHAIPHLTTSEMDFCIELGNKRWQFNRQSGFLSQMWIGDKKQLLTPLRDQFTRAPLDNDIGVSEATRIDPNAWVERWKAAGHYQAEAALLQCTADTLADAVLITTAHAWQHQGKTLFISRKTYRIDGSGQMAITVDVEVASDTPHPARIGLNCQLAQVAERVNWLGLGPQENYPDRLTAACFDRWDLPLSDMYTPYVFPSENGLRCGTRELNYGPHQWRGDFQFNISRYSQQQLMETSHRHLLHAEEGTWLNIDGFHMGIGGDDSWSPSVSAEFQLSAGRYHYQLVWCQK
Large T antigen, sequence (P03070 whole entry): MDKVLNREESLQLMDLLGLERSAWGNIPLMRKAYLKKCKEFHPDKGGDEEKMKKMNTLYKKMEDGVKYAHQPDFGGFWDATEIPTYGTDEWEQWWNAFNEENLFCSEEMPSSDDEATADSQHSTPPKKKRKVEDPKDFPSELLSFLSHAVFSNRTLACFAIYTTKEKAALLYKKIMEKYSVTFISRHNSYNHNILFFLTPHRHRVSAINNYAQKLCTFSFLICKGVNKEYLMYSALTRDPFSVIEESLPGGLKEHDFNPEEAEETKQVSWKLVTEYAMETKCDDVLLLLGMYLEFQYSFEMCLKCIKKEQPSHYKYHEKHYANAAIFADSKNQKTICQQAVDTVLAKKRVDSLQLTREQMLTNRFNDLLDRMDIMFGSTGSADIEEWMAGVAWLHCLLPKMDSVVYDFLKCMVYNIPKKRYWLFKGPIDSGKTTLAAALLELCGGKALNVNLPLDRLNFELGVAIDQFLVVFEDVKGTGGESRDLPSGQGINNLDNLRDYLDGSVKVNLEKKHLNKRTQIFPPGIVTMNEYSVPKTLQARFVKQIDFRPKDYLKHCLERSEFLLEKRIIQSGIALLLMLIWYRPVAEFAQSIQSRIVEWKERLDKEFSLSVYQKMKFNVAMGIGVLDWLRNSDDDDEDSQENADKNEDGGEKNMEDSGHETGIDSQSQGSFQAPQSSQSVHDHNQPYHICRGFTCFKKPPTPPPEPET
Tyrosyl-DNA phosphodiesterase 2, sequence (O95551 whole entry): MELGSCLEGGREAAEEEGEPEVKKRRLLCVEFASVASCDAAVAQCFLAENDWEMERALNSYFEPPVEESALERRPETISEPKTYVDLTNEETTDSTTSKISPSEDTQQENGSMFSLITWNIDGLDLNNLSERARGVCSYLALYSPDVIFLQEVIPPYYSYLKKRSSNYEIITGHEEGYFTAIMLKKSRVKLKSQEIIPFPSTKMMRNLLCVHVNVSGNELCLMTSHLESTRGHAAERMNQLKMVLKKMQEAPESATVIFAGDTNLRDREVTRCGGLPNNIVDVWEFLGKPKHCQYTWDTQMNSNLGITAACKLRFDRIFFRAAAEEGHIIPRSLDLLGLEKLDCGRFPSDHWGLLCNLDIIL

SMILES: CCC(CO)Oc1cc(NC(=O)c2cccc(OC)c2)c2ncn(C(C)C)c2c1 (stereo unspecified)
IC50 [1]: > 66.6 µM (inactive) | IC50 [2]: 12.7 µM (active) | IC50 [3]: 36.6 µM (inactive)

IC50 (Beta-galactosidase): > 80 µM (inactive)
SMILES: CCOC(=O)N1CCN(C(=O)c2cc3cc(Cl)ccc3[nH]2)CC1

IC50 [4]: 15.5 µM (inactive) | IC50 [5]: > 123 µM (inactive)
SMILES: COc1ccc(CS(=O)(=O)c2nnc[nH]2)cc1

SMILES: CC1NC(C)c2c(ccc3ccccc23)O1 (stereo unspecified)
IC50 [6]: 114 µM (active) | IC50 (cells [7]): > 29.9 µM (inactive) | EC50 (cells [8]): > 29.9 µM (inactive)

SMILES: CNc1nc(NCCOc2ccccc2)c2sccc2n1
AC50 [9]: 38.3 µM (active) | AC50 [10]: 4.2 µM (active)

IC50 (Beta-galactosidase): > 80 µM (inactive)
SMILES: CCN1CCN(C(=O)/C=C/c2ccc(OC)cc2)CC1

SMILES: O=C1Cc2c([nH]c3ccc(Br)cc23)-c2ccccc2N1 [KENPAULLONE]
IC50 (cells [11]): > 67.5 µM (inactive) | IC50 [12]: > 0.834 µM (active)

IC50 (Large T antigen): 23.1 µM (active) | IC50 [13]: 28.9 µM (active) | IC50 [6]: 52.1 µM (active) | AC50 [15]: 7.86 µM (active)
SMILES: Oc1ccc(/C=N/Nc2cc(N3CCOCC3)nc(N3CCOCC3)n2)cc1O
CC50 [14]: 100 µM (active)

IC50 [4]: > 122 µM (inactive) | IC50 [5]: > 122 µM (inactive)
SMILES: COc1cc(NS(=O)(=O)c2ccc(NC(=O)CN3C(=O)c4ccccc4C3=O)cc2)nc(OC)n1
